Test system: KRAS-mutant PDC multicell tumor spheroid viability
Experiment: Anticancer human tumor 521955-158-R2-J5-PDC patient-derived pancreatic carcinoma cell line growth inhibition [KRAS2]
Details: for IC50: curve of first compound; for viability, T/C: stronger effect = lower value
How it was run: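 Combination screen of spheroid viability in tumor-cell co-cultures with endothelial (HUVEC) and mesenchymal stem cell stroma. Each agent was tested in half-log dilutions, topping at clinical Cmax or at 10 microM without a known Cmax.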

[1] = second compound 0.1 µM, first compound 0.0316 µM
[2] = second compound 0.1 µM, first compound 0.1 µM
[3] = second compound 0.316 µM, first compound 0.0316 µM
[4] = second compound 0.316 µM, first compound 0.1 µM
[5] = second compound 1 µM, first compound 0.0316 µM
[6] = second compound 1 µM, first compound 0.1 µM
[7] = second compound 3.16 µM, first compound 0.0316 µM
[8] = second compound 3.16 µM, first compound 0.1 µM
[9] = second compound 10 µM, first compound 0.0316 µM
[10] = second compound 10 µM, first compound 0.1 µM
[11] = second compound 0.1 µM, first compound 0.316 µM
[12] = second compound 0.1 µM, first compound 1 µM
[13] = second compound 0.1 µM, first compound 3.16 µM
[14] = second compound 0.1 µM, first compound 10 µM
[15] = second compound 0.316 µM, first compound 0.316 µM
[16] = second compound 0.316 µM, first compound 1 µM
[17] = second compound 0.316 µM, first compound 3.16 µM
[18] = second compound 0.316 µM, first compound 10 µM
[19] = second compound 1 µM, first compound 0.316 µM
[20] = second compound 1 µM, first compound 1 µM
[21] = second compound 1 µM, first compound 3.16 µM
[22] = second compound 1 µM, first compound 10 µM
[23] = second compound 3.16 µM, first compound 0.316 µM
[24] = second compound 3.16 µM, first compound 1 µM
[25] = second compound 3.16 µM, first compound 3.16 µM
[26] = second compound 3.16 µM, first compound 10 µM
[27] = second compound 10 µM, first compound 0.316 µM
[28] = second compound 10 µM, first compound 1 µM
[29] = second compound 10 µM, first compound 3.16 µM
[30] = second compound 10 µM, first compound 10 µM
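Further: viability read after seven days of drug exposure.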

| Compound | IC50 (second compound 0.1 µM) | IC50 (second compound 0.316 µM) | IC50 (second compound 1 µM) | IC50 (second compound 3.16 µM) | IC50 (second compound 10 µM) | viability, T/C [1] | viability, T/C [2] | viability, T/C [3] | viability, T/C [4] | viability, T/C [5] | viability, T/C [6] | viability, T/C [7] | viability, T/C [8] | viability, T/C [9] | viability, T/C [10] | viability, T/C [11] | viability, T/C [12] | viability, T/C [13] | viability, T/C [14] | viability, T/C [15] | other results |
| --- | --- | --- | --- | --- | --- | --- | --- | --- | --- | --- | --- | --- | --- | --- | --- | --- | --- | --- | --- | --- | --- |
| CC(C)n1nc(-c2ccc3oc(N)nc3c2)c2c(N)ncnc21 + CNCc1ccccc1-c1csc(C(C)Nc2nc(C)nc3cc(OC)c(OC)cc23)c1 | 7.42 nM | 9.11 nM | 6.62 nM | < 0.316 nM | < 0.316 nM | 34.1% | 25.2% | 30.7% | 23.8% | 30.9% | 21.6% | 1.25% | 0.88% | 0.15% | 0.2% |  |  |  |  |  | viability, T/C (second compound 0.1 µM, first compound 0.000316 µM): 91.2%; viability, T/C (second compound 0.1 µM, first compound 0.001 µM): 85.3%; viability, T/C (second compound 0.1 µM, first compound 0.00316 µM): 61.2%; viability, T/C (second compound 0.1 µM, first compound 0.01 µM): 45.8%; viability, T/C (second compound 0.316 µM, first compound 0.000316 µM): 84%; viability, T/C (second compound 0.316 µM, first compound 0.001 µM): 83.2%; viability, T/C (second compound 0.316 µM, first compound 0.00316 µM): 67.1%; viability, T/C (second compound 0.316 µM, first compound 0.01 µM): 49.4%; viability, T/C (second compound 1 µM, first compound 0.000316 µM): 92.5%; viability, T/C (second compound 1 µM, first compound 0.001 µM): 82.7%; viability, T/C (second compound 1 µM, first compound 0.00316 µM): 62.2%; viability, T/C (second compound 1 µM, first compound 0.01 µM): 42.1%; viability, T/C (second compound 3.16 µM, first compound 0.000316 µM): 32.1%; viability, T/C (second compound 3.16 µM, first compound 0.001 µM): 43.5%; viability, T/C (second compound 3.16 µM, first compound 0.00316 µM): 0.4%; viability, T/C (second compound 3.16 µM, first compound 0.01 µM): 0.49%; viability, T/C (second compound 10 µM, first compound 0.000316 µM): 0.38%; viability, T/C (second compound 10 µM, first compound 0.001 µM): 0.15%; viability, T/C (second compound 10 µM, first compound 0.00316 µM): 0.47%; viability, T/C (second compound 10 µM, first compound 0.01 µM): 0.13% |
| CC1(C)CCC(CN2CCN(c3ccc(C(=O)NS(=O)(=O)c4ccc(NCC5CCOCC5)c([N+](=O)[O-])c4)c(Oc4cnc5[nH]ccc5c4)c3)CC2)=C(c2ccc(Cl)cc2)C1 + CNCc1ccccc1-c1csc(C(C)Nc2nc(C)nc3cc(OC)c(OC)cc23)c1 | 6160 nM | 5210 nM | 4130 nM | < 31.6 nM | < 31.6 nM | 98.8% | 98.8% | 90.2% | 94.1% | 91.1% | 104% | 0.76% | 3.72% | 0.3% | 0.27% | 97.2% | 102% | 104% | 13.4% | 93.4% | viability, T/C [16]: 89.2%; viability, T/C [17]: 80.8%; viability, T/C [18]: 9.94%; viability, T/C [19]: 103%; viability, T/C [20]: 84.5%; viability, T/C [21]: 64.2%; viability, T/C [22]: 5.98%; viability, T/C [23]: 43.5%; viability, T/C [24]: 1.04%; viability, T/C [25]: 1.54%; viability, T/C [26]: 0.73%; viability, T/C [27]: 0.23%; viability, T/C [28]: 0.22%; viability, T/C [29]: 0.67%; viability, T/C [30]: 0.32% |
| COc1cc(Nc2ncc3c(n2)-c2ccc(Cl)cc2C(c2c(F)cccc2OC)=NC3)ccc1C(=O)O + CNCc1ccccc1-c1csc(C(C)Nc2nc(C)nc3cc(OC)c(OC)cc23)c1 | 75.6 nM | < 31.6 nM | < 31.6 nM | < 31.6 nM | < 31.6 nM | 57.5% | 48.2% | 48.4% | 45.4% | 39.7% | 31.4% | 0.73% | 0.13% | 0.28% | 0.29% | 43.6% | 48.2% | 49.2% | 43.6% | 51.4% | viability, T/C [16]: 46%; viability, T/C [17]: 47.6%; viability, T/C [18]: 39.8%; viability, T/C [19]: 34.5%; viability, T/C [20]: 28.4%; viability, T/C [21]: 35.2%; viability, T/C [22]: 40.9%; viability, T/C [23]: 1.25%; viability, T/C [24]: 1.11%; viability, T/C [25]: 0.12%; viability, T/C [26]: 1.59%; viability, T/C [27]: 0.26%; viability, T/C [28]: 0.51%; viability, T/C [29]: 1.28%; viability, T/C [30]: 0.37% |
| COc1cc2nccc(Oc3ccc(NC(=O)C4(C(=O)Nc5ccc(F)cc5)CC4)cc3)c2cc1OC + CNCc1ccccc1-c1csc(C(C)Nc2nc(C)nc3cc(OC)c(OC)cc23)c1 | 6770 nM | 6200 nM | 3700 nM | < 31.6 nM | < 31.6 nM | 92.7% | 94.2% | 94.6% | 101% | 98.8% | 99.9% | 0.62% | 0.34% | 0.2% | 0.12% | 94.5% | 92.2% | 70.7% | 39.4% | 95.9% | viability, T/C [16]: 115%; viability, T/C [17]: 75.7%; viability, T/C [18]: 31.9%; viability, T/C [19]: 114%; viability, T/C [20]: 99.6%; viability, T/C [21]: 57.7%; viability, T/C [22]: 2.02%; viability, T/C [23]: 0.41%; viability, T/C [24]: 0.52%; viability, T/C [25]: 0.39%; viability, T/C [26]: 0.4%; viability, T/C [27]: 0.63%; viability, T/C [28]: 0.12%; viability, T/C [29]: 0.23%; viability, T/C [30]: 0.19% |

— PubChem BioAssay AID1963871 (Molecular Pharmacology Branch, DTP, NCI, 2024)
